Experimental data from patent US10653658B2, “Biofilm inhibiting compositions enhancing weight gain in livestock” (Akeso Biomedical, Inc., priority 2015, dated 2020).
Marks after values point to notes of the source that are not given here.

Experiments:
[1] = test system: Campylobacter jejuni NCTC 11168; assay: Biofilm formation on plastic coated UV beads (Example 6); details: Fe-Tart and Fe-Cit at 50, 100, and 300 μM; FeQ (QPLEX) at 300
[2] = Dose ranging study of FeTyr (TYPLEX) in feed, zootechnical performance of broilers, dirty litter challenge at day 20 (Example 10); type: in vivo, Ross 308 male broilers; details: for AFI / AWG / MFCR / AFI/bird/period / AWG/bird/period: 0.22 g Q-PLEX/kg feed
Description: (§1) A study was performed to evaluate growth promotion and reduction of Campylobacter carriage using FeTyr in Ross 308 male broilers with 7 treatment groups. Each treatment group comprised eight replicates of 10 birds per pen (80 birds/treatment group), with 2 control groups and […]. All the test groups and both of the control groups were exposed at day 20 of the trial to dirty litter, which tested positive for Campylobacter. This method was used to provide a more natural method to Campylobacter challenge the birds. Thus there were two positive controls where each treatment group was challenged with Campylobacter, and five treatment groups that were all challenged with Campylobacter. The total number of birds used in the 7 treatment groups was 560.
Treatment group 1 was a positive control where birds just received the commercial feed, and were challenged with dirty litter containing Campylobacter at day 20. Treatment group 2 received 0.01 g/kg of TYPLEX (FeTyr) in their feed, and were challenged with dirty litter containing Campylobacter at day 20. Treatment group 3 received 0.02 g/kg of TYPLEX (FeTyr) in their feed, and was challenged with dirty litter containing Campylobacter at day 20. Treatment group 4 received 0.05 g/kg of TYPLEX (FeTyr) in their feed, and was challenged with dirty litter containing Campylobacter at day 20. Treatment group 5 received 0.1 g/kg of TYPLEX (FeTyr) in their feed, and was challenged with dirty litter containing Campylobacter at day 20. Treatment group 6 received 0.2 g/kg of TYPLEX (FeTyr) in their feed, and was challenged with dirty litter containing Campylobacter at day 20. […] The birds were fed with a commercial three-phase feeding program using starter, grower and finisher feeds as described in Example 1. The birds were reared in floor pens to day 42, and fed starter, grower and finisher feed at day 0 to 11, 11 to 24, and 24 to 42 days, respectively. All birds were weighed individually and feed weigh backs recorded per pen at day 0, 11, 21, 24 and 42 days.
(§2) At day 20, litter, which was naturally Campylobacter-contaminated, was tested to confirm the presence of Campylobacter, and then added (approximately 2 kg/pen) to the litter in all pens. At day 42, caecal samples were taken and tested for Campylobacter, E. coli and Salmonella enumeration.
In order to minimize risk of cross-contamination, standard industry biosecurity measures were used including: disinfecting boots, changing overshoes and gloves between pens/treatments, entering Campylobacter negative pens before entering Campylobacter positive pens, and leaving adjacent pens empty. Daily health, culls, and mortality were recorded. All bird weights were recorded at 0, 11, 21, 24, 33 and 42 days. Weight gains, feed intake and feed conversion ratio (FCR) were derived for each feeding period.

[3] = test system: Salmonella; assay: Salmonella cfu/g of caeca at day 42 (Example 10); type: in vivo; details: in feed
Description: as §1, §2

[4] = test system: Campylobacter; assay: Campylobacter cfu/g of caeca at day 42 (Example 10); type: in vivo; details: in feed
Description: as §1, §2

[5] = test system: E. coli; assay: E. coli cfu/g of caeca at day 42 (Example 10); type: in vivo
Description: as §1, §2

## O=C([O-])C1(O)CC(O)C(O)C(O)C1.O=C([O-])C1(O)CC(O)C(O)C(O)C1.O=C([O-])C1(O)CC(O)C(O)C(O)C1.[Fe+3] (stereo not drawn) [FeQ, Ferric Quinate]
[1]
  C. jejuni biofilm formation on plastic coated UV beads (FIG. 9): inhibited C. jejuni biofilm formation
[2]; 0-25 d of age
  AFI: 1.898 kg
  AWG: 1.422^c kg
  MFCR: 1.335^a feed:gain
[2]; 0-35 d of age
  AFI/bird/period: 3.815 kg
  AWG/bird/period: 0.668 kg
  MFCR: 1.458^a feed:gain
[2]; 0-42 d of age
  AFI/bird/period: 5.279 kg
  AWG/bird/period: 3.448^ab kg
  MFCR: 1.547^a feed:gain
[2]; 35 to 42 d of age
  AFI: 1.464 kg
  AWG: 0.790 kg
  MFCR: 1.864 feed:gain
[2]; T7 0.22 g Q-PLEX/kg feed
  ABW (average body weight/pen) 1 d: 0.040 kg
  ABW (average body weight/pen) 11 d: 0.350^b kg
  ABW (average body weight/pen) 20 d: 0.968 kg
  ABW (average body weight/pen) 25 d: 1.463^c kg
  ABW (average body weight/pen) 28 d: 1.836^b kg
  ABW (average body weight/pen) 30 d: 2.031^b kg
  ABW (average body weight/pen) 35 d: 2.698^ab kg
  ABW (average body weight/pen) 42 d: 3.488^ab kg
  AFI (mean feed intake/pen) 1 to 11 d: 0.357^b kg
  AFI (mean feed intake/pen) 11 to 20 d: 0.836^ab kg
  AFI (mean feed intake/pen) 11 to 25 d: 1.541 kg
  AFI (mean feed intake/pen) 20 to 35 d: 2.622 kg
  AFI (mean feed intake/pen) 25-42 d: 3.381 kg
  AFI/bird/period 20-25 d: 0.705 kg
  AFI/bird/period 25-35 d: 1.917 kg
  AWG (mean weight gain/pen) 1 to 11 d: 0.310^b kg
  AWG (mean weight gain/pen) 11 to 20 d: 0.618 kg
  AWG (mean weight gain/pen) 11 to 25 d: 1.113^b kg
  AWG (mean weight gain/pen) 20 to 35 d: 1.730^ab kg
  AWG (mean weight gain/pen) 25-42 d: 2.026^ab kg
  AWG/bird/period 20-25 d: 0.495 kg
  AWG/bird/period 25-35 d: 1.236^abc kg
  MFCR 1 to 11 d: 1.150^x feed:gain
  MFCR 11 to 20 d: 1.357^ab feed:gain
  MFCR 11 to 25 d: 1.387^a feed:gain
  MFCR 20-25 d: 1.430^a feed:gain
  MFCR 20 to 35 d: 1.554^a feed:gain
  MFCR 25-35 d: 1.607^ab feed:gain
  MFCR 25-42 d: 1.703^ab feed:gain
[2]; all treatment groups, in feed
  MFCR at day 42 compared to control group (FIG. 13): improved MFCR values
  average body weight at day 42 compared with control group (FIG. 12): higher average body weight
[3]
  Salmonella cfu/g of caeca at day 42 (FIG. 15): positive effect on reducing Campylobacter infection
[4]
  Campylobacter cfu/g of caeca at day 42 (FIG. 14): positive effect on reducing Campylobacter infection
[5]; in feed
  E. coli cfu/g of caeca at day 42 (FIG. 16): positive effect on reducing Campylobacter infection
[5]; poultry data
  levels of E. coli in poultry upon treatment: lower levels of E. coli
